Results published in patent US20070292351A1, “Assay for efficacy of histone deacetylase inhibitors” (Methylgene, Inc., priority 2006, published 2007).

Tests used:
[1] = system: implanted human NSCLC H460 tumors; experiment: Semi-quantitative PCR of p21 and MT3 in H460 tumors in nude mice; assay type: in vivo, nude mice (Balb/c); details: 100 mg/kg oral
Method: FIG. 5 Induction of MT3 and p21 in implanted human NSCLC H460 tumors in vivo in nude mice. Nude mice (Balb/c) bearing human H460 tumors were treated with 100 mg/kg MGCD0103 or 0.5% HEC (Vehicle) by oral administration. After 6 h or 24 h, three mice from each group were sacrificed, their tumors harvested and analyzed. Panel A: p21 and MT3 RNA levels quantified by conventional semi-quantitative PCR, normalized to β-actin. Panel B: H4Ac level detected by immunoblot analysis, normalized to total histones.
(§1) RNA was extracted from 8×10^6 cells using the Qiagen RNeasy Mini kit (cat#74106, Qiagen, Missisauga Ont.) following the manufacturer's instructions. RT reaction was performed using the Expand Reverse Transcriptase kit from Roche (Cat#1 785 834 Roche Applied Biosciences, Laval, Que) with 1 μg total RNA together with 1 μl oligo(dT) primer (cat#y01212, Invitrogen-Canada, Burlington, Ont). cDNA was synthesized using an Eppendorf Mastercycler gradient PCR apparatus (Brinkmann Instruments Canada LTD., Mississauga, Ontario), using a two cycle protocol. For the 1st cycle reaction mixture (0.5 μl H2O, 4 μl of 5× Buffer, 2 μl DTT, 2 ul of 10 mM dNTPs, 0.5 μl RNAsin (cat#N211B, Promega, Fisher Scientific, Whitby, Ont.) and […] of the Expand Reverse Transcriptase (Cat#1785834, Roche, Laval, Quebec)) was incubated at 65° C. for 10 minutes and then set on ice. A second cycle was performed at 42° C. for 1 hour. The resulting cDNA products were kept at 4° C. until used.
One ul of the resulting cDNA was used for every amplification reaction with 18.9 ul H2O, 1.25 ul of 10 mM dNTPs, 0.5 ul of each primer pair, 2.5 ul of 10× Buffer. The PCR reaction was carried out in an Eppendorf Mastercycler gradient. The sequences of the primers used for the amplification of selected biomarkers, as well as the details of the PCR reaction cycles are featured below. All buffers came from Expand Long Template PCR system (Roche, Laval, Quebec, Cat#11681842001). All primers were synthesized by Invitrogen (Invitrogen-Canada, Burlington, Ont.) […]

Jurkat-T leukemic cells = experiment: RT-PCR of MT3 transcription in Jurkat-T cells; assay type: cell-based, human; details: 16 h, semi-quantitative RT-PCR (FIG. 2)
Method: as §1
One ul of the resulting cDNA was used for every amplification reaction with 18.9 ul H2O, 1.25 ul of 10 mM dNTPs, 0.5 ul of each primer pair, 2.5 ul of 10× Buffer. The PCR reaction was carried out in an Eppendorf Mastercycler gradient. The sequences of the primers used for the amplification of selected biomarkers, as well as the details of the PCR reaction cycles are featured below. […]

peripheral white cells = experiment: Cytokine/chemokine transcription in peripheral white cells treated ex vivo; assay type: cell-based, human
Method: FIG. 15 Induction of transcription of IL-6, IL-8, IL-1b, MIP1b cytokine/chemokines by MGCD0103 in peripheral white cells ex vivo from a MDS patient and in vivo in an AML patient with response (Patient J).
Whole blood from either consenting healthy volunteers or consenting patients was centrifuged at 2500 rpm for 10 minutes at ambient temperature in a Sorvall RT-7 centrifuge (Mandel Scientific Co., Guelph, Ontario). Plasma was removed and buffy coat was collected. Five volumes of Erythrocyte Lysis Buffer (EL) (Qiagen Canada Inc., Mississauga, Ontario) were added into buffy coat. Buffy coat was incubated on ice for 20 minutes before it was centrifuged at 400 g for 10 minutes at 4° C. Supernatant was removed and buffy coat was washed twice with EL buffer and re-centrifuged. Buffy coat was resuspended in RPMI media and cells were counted with trypan blue exclusion. To isolate PBMCs, buffy coat cells were centrifuged over Lymphoprep (Axis-Shield, 1114544), and any remaining erythrocytes in the sample were lysed by treatment with EL lysis buffer (Qiagen, 79217). The cell pellets are washed and then re-suspended in RPMI containing 10% FBS.

IL-6 and IL-8 = experiment: Cytokine antibody array of patient plasma; assay type: in vivo, human; details: two leukemia patients treated orally; cytokine antibody array (FIG. 16)
Method: FIG. 16 Induction of IL-6 and IL-8 expression in plasma from two leukemia patients treated with MGCD0103 orally in vivo, as determined by cytokine antibody array.
(§2) Human patients with either solid tumors or leukemia/MDS diseases were enrolled in phase I studies with consensus forms. MGCD0103 were dosed into patients orally every other day (day 1, day 3, day 5 […]). Blood samples were withdrawled by using the Vacutainer sodium-heparin blood collection tubes (Becton Dickinson Laboratories, Franklin Lakes, N.J.) and shipped to the test site within 24 hours on ice-pack. Baseline samples were drawn immediately prior to the first drug dose, while the 24 hour samples were drawn at 24 hours post the first drug dose. The 48 hours samples were drawn at 48 hours post the first dose. For the 1 week samples, blood was drawn 72 hours after day 5 dose (3 accumulated doses during week 1).
10 ml blood from patients were centrifuged at 2500 RPM for 10 min at 10° C. […] The levels of cytokines in the plasma were determined using the TranSignal Human Cytokine Antibody Array 1.0 (Cat#MA6120, Panomics Inc. Redwood City, Calif.) following the manufacturer's instructions. […] Blots were developed by autoradiography, scanned and quantitated using the Cyclone Software. Data was calculated, plotted using Excel and expressed as fold induction from Day 8 following treatment over baseline Day 0 samples.

bone marrow blast count = experiment: Bone marrow blast count in AML patient; assay type: in vivo, human; details: AML Patient A, 2 cycles of treatment (FIG. 10)
Method: FIG. 10. Reduction of bone marrow blast count in Patient A after 2 cycles of MGCD0103 treatment in vivo.
as §2

## Nc1ccccc1NC(=O)c1ccc(CNc2nccc(-c3cccnc3)n2)cc1 [MGCD0103]
[1]
  persistence of gene induction (p21, MT3) in tumors: at least 24 h
[1]; 6 h or 24 h (FIG. 5A)
  induction of MT3 RNA in tumors: induction
  induction of p21 RNA in tumors: induction
Jurkat-T leukemic cells
  Dose-dependent induction of MT3 transcription: Dose-dependent induction
Peripheral white cells; peripheral white cells ex vivo from a MDS patient (Patient J) (FIG. 15)
  induction of transcription of IL-6, IL-8, IL-1b, MIP1b: induction
Peripheral white cells; peripheral white cells from healthy volunteers treated ex vivo (FIG. 15)
  induction of transcription of IL-6, IL-8, IL-1b, MIP1b: No such induction
IL-6 and IL-8
  induction of IL-6 and IL-8 expression in plasma: induction
Bone marrow blast count
  bone marrow blast count: reduction
